Data as given in patent US8476256B2, “Diazonamide analogs” (Joyant Pharmaceuticals, Inc., priority 2008, dated 2013).
Blank lines part the entries; values can stand above or below the molecule they belong to.

Legend:
[1] = tested on: A2058 (human melanoma) cell line; assay: Cell viability assay (CELL-TITER-GLO), A2058; assay type: cell-based; conditions: A2058 cells, 48 hour treatment, 1 nM to 1 μM
Description: (§1) Cell viability assays were run using standard protocols known to those of skill in art. Cells were plated in 96 well plates at the density of 3,000-10,000 cells per well. Twenty four hours later, cells were treated with increasing concentration of test compounds (1 nM to 1 μM). After another 48 hour, cell survival was measured using CELL-TITER-GLO® reagent (Promega) following the protocol provided by the manufacture. The IC50 value was determined as the concentration of test compound that kills 50% of the cell population.
(§2) Cell viability data generated according to the protocol described herein was generated for representative compounds in the A2058 (human melanoma) and U937 (human leukemic monocyte lymphoma) cell lines. The compound of Example 16 (“Compound J”) was used as a reference compound.

[2] = tested on: U937 (human leukemic monocyte lymphoma) cell line; assay: Cell viability assay (CELL-TITER-GLO), U937; assay type: cell-based; conditions: U-937, U937 cells, 48 hour treatment, 1 nM to 1 μM
Description: as §1, §2

SMILES: CC(C)[C@H](O)C(=O)N[C@H]1Cc2ccc3c(c2)C24C5=C(N=C(O5)[C@H](C(C)C)NC1=O)c1nc(Cl)c(o1)-c1c(Cl)[nH]c5cccc(c15)-c1cccc2c1N[C@H]4O3 (stereo in doubt) [Example 85, Diazonamide A]
IC50 [1]: 0.057 µM | IC50 [2]: 0.086 µM

SMILES: CC(C)[C@@H]1NC(=O)[C@@H](NC(=O)[C@@H](O)c2ccccc2)Cc2ccc3c(c2)C24C5=C(N=C1O5)c1ncc(o1)-c1c[nH]c5cccc(c15)-c1cccc2c1N[C@H]4O3 (some centres unmarked) [Example 17]
IC50 [1]: 0.63 µM | IC50 [2]: 0.465 µM

SMILES: CC(C)[C@@H]1NC(=O)C(NC(=O)[C@H](C)O)Cc2ccc3c(c2)[C@]24C5=C(N=C1O5)c1ncc(o1)-c1c[nH]c5cccc(c15)-c1cccc2c1NC4O3 (some centres unmarked) [Example 18]
IC50 [1]: 0.394 µM | IC50 [2]: 0.208 µM

SMILES: CC(C)[C@@H]1NC(=O)C(NC(=O)[C@@H](O)C(C)(C)C)Cc2ccc3c(c2)[C@]24C5=C(N=C1O5)c1ncc(o1)-c1c[nH]c5cccc(c15)-c1cccc2c1NC4O3 (some centres unmarked) [Example 19]
IC50 [1]: 0.222 µM | IC50 [2]: 0.062 µM

SMILES: CC(C)C[C@H](O)C(=O)NC1Cc2ccc3c(c2)[C@]24C5=C(N=C(O5)[C@H](C(C)C)NC1=O)c1ncc(o1)-c1c[nH]c5cccc(c15)-c1cccc2c1NC4O3 (some centres unmarked) [Example 20]
IC50 [1]: 0.158 µM | IC50 [2]: 0.142 µM

SMILES: CC(C)[C@@H]1NC(=O)C(NC(=O)[C@@H](O)C2CCCCC2)Cc2ccc3c(c2)[C@]24C5=C(N=C1O5)c1ncc(o1)-c1c[nH]c5cccc(c15)-c1cccc2c1NC4O3 (some centres unmarked) [Example 21]
IC50 [1]: > 1 µM | IC50 [2]: > 1 µM

SMILES: CC(C)[C@@H]1NC(=O)C(NC(=O)C(C)(C)O)Cc2ccc3c(c2)[C@]24C5=C(N=C1O5)c1ncc(o1)-c1c[nH]c5cccc(c15)-c1cccc2c1NC4O3 (some centres unmarked) [Example 22]
IC50 [1]: 0.23 µM | IC50 [2]: 0.146 µM

SMILES: CC(C)[C@@H]1NC(=O)C(NC(=O)C2(O)CC2)Cc2ccc3c(c2)[C@]24C5=C(N=C1O5)c1ncc(o1)-c1c[nH]c5cccc(c15)-c1cccc2c1NC4O3 (some centres unmarked) [Example 25]
IC50 [1]: 0.769 µM | IC50 [2]: 0.42 µM

SMILES: CC(C)[C@@H]1NC(=O)C(NC(=O)C2(O)CCCC2)Cc2ccc3c(c2)[C@]24C5=C(N=C1O5)c1ncc(o1)-c1c[nH]c5cccc(c15)-c1cccc2c1NC4O3 (some centres unmarked) [Example 26]
IC50 [1]: 0.214 µM | IC50 [2]: 0.154 µM

SMILES: CC(C)[C@@H]1NC(=O)C(NC(=O)C2(O)CCCCC2)Cc2ccc3c(c2)[C@]24C5=C(N=C1O5)c1ncc(o1)-c1c[nH]c5cccc(c15)-c1cccc2c1NC4O3 (some centres unmarked) [Example 27]
IC50 [1]: 0.181 µM | IC50 [2]: 0.128 µM

SMILES: CCC(CO)(CO)C(=O)NC1Cc2ccc3c(c2)[C@]24C5=C(N=C(O5)[C@H](C(C)C)NC1=O)c1ncc(o1)-c1c[nH]c5cccc(c15)-c1cccc2c1NC4O3 (some centres unmarked) [Example 28]
IC50 [1]: 0.208 µM | IC50 [2]: 0.133 µM

SMILES: CC(C)[C@@H]1NC(=O)C(NC(=O)[C@H](O)[C@@H](NC(=O)c2ccccc2)c2ccccc2)Cc2ccc3c(c2)[C@]24C5=C(N=C1O5)c1ncc(o1)-c1c[nH]c5cccc(c15)-c1cccc2c1NC4O3 (some centres unmarked) [Example 29]
IC50 [1]: > 1 µM | IC50 [2]: > 1 µM

SMILES: CO[C@H](C(=O)N[C@H]1Cc2ccc3c(c2)C24C5=C(N=C(O5)[C@H](C(C)C)NC1=O)c1ncc(o1)-c1c[nH]c5cccc(c15)-c1cccc2c1N[C@H]4O3)C(C)C (some centres unmarked) [Example 30]
IC50 [1]: 0.197 µM | IC50 [2]: 0.224 µM

SMILES: CC(=O)O[C@H](C(=O)N[C@H]1Cc2ccc3c(c2)C24C5=C(N=C(O5)[C@H](C(C)C)NC1=O)c1ncc(o1)-c1c[nH]c5cccc(c15)-c1cccc2c1N[C@H]4O3)C(C)C (some centres unmarked) [Example 31]
IC50 [1]: 0.194 µM | IC50 [2]: 0.062 µM

SMILES: COC(=O)O[C@H](C(=O)N[C@H]1Cc2ccc3c(c2)C24C5=C(N=C(O5)[C@H](C(C)C)NC1=O)c1ncc(o1)-c1c[nH]c5cccc(c15)-c1cccc2c1N[C@H]4O3)C(C)C (some centres unmarked) [Example 32]
IC50 [1]: 0.211 µM | IC50 [2]: 0.157 µM

SMILES: CC(C)[C@H](N)C(=O)N[C@H]1Cc2ccc3c(c2)C24C5=C(N=C(O5)[C@H](C(C)C)NC1=O)c1ncc(o1)-c1c[nH]c5cccc(c15)-c1cccc2c1N[C@H]4O3 (some centres unmarked) [Example 33]
IC50 [1]: 1.44 µM | IC50 [2]: 0.572 µM

SMILES: CN[C@H](C(=O)N[C@H]1Cc2ccc3c(c2)C24C5=C(N=C(O5)[C@H](C(C)C)NC1=O)c1ncc(o1)-c1c[nH]c5cccc(c15)-c1cccc2c1N[C@H]4O3)C(C)C (some centres unmarked) [Example 34]
IC50 [1]: 0.221 µM | IC50 [2]: 0.393 µM

SMILES: CC(=O)N[C@H](C(=O)N[C@H]1Cc2ccc3c(c2)C24C5=C(N=C(O5)[C@H](C(C)C)NC1=O)c1ncc(o1)-c1c[nH]c5cccc(c15)-c1cccc2c1N[C@H]4O3)C(C)C (some centres unmarked) [Example 35]
IC50 [1]: 0.232 µM | IC50 [2]: 0.183 µM

SMILES: CC(C)C1NC(=O)[C@@H](NC(=O)[C@@H]2CCCN2)Cc2ccc3c(c2)C24C5=C(N=C1O5)c1ncc(o1)-c1c[nH]c5cccc(c15)-c1cccc2c1N[C@H]4O3 (some centres unmarked) [Example 36]
IC50 [1]: > 1 µM | IC50 [2]: > 1 µM

SMILES: CC(C)C1NC(=O)[C@@H](NC(=O)[C@@H]2C[C@@H](O)CN2)Cc2ccc3c(c2)C24C5=C(N=C1O5)c1ncc(o1)-c1c[nH]c5cccc(c15)-c1cccc2c1N[C@H]4O3 (some centres unmarked) [Example 37]
IC50 [1]: > 1 µM | IC50 [2]: > 1 µM

SMILES: CC(C)CC(=O)N[C@H]1Cc2ccc3c(c2)[C@]24C5=C(N=C(O5)[C@H](C(C)C)NC1=O)c1ncc(o1)-c1c[nH]c5cccc(c15)-c1cccc2c1NC4O3 (some centres unmarked) [Example 38]
IC50 [1]: 0.417 µM | IC50 [2]: 0.216 µM

SMILES: CC[C@H](C)C(=O)NC1Cc2ccc3c(c2)[C@]24C5=C(N=C(O5)[C@H](C(C)C)NC1=O)c1ncc(o1)-c1c[nH]c5cccc(c15)-c1cccc2c1NC4O3 (some centres unmarked) [Example 39]
IC50 [1]: 0.707 µM | IC50 [2]: 0.555 µM

SMILES: CCC(C)(C)C(=O)NC1Cc2ccc3c(c2)[C@]24C5=C(N=C(O5)[C@H](C(C)C)NC1=O)c1ncc(o1)-c1c[nH]c5cccc(c15)-c1cccc2c1NC4O3 (some centres unmarked) [Example 40]
IC50 [1]: 0.233 µM | IC50 [2]: 0.164 µM

SMILES: CCCC(C)(C)C(=O)NC1Cc2ccc3c(c2)[C@]24C5=C(N=C(O5)[C@H](C(C)C)NC1=O)c1ncc(o1)-c1c[nH]c5cccc(c15)-c1cccc2c1NC4O3 (some centres unmarked) [Example 41]
IC50 [1]: 0.397 µM | IC50 [2]: 0.22 µM

SMILES: CC(C)=CC(=O)NC1Cc2ccc3c(c2)[C@]24C5=C(N=C(O5)[C@H](C(C)C)NC1=O)c1ncc(o1)-c1c[nH]c5cccc(c15)-c1cccc2c1NC4O3 (some centres unmarked) [Example 42]
IC50 [1]: 0.409 µM | IC50 [2]: 0.221 µM

SMILES: CC/C=C/C(=O)NC1Cc2ccc3c(c2)[C@]24C5=C(N=C(O5)[C@H](C(C)C)NC1=O)c1ncc(o1)-c1c[nH]c5cccc(c15)-c1cccc2c1NC4O3 (some centres unmarked) [Example 43]
IC50 [1]: 0.356 µM | IC50 [2]: 0.186 µM

SMILES: CC/C=C(\C)C(=O)NC1Cc2ccc3c(c2)[C@]24C5=C(N=C(O5)[C@H](C(C)C)NC1=O)c1ncc(o1)-c1c[nH]c5cccc(c15)-c1cccc2c1NC4O3 (some centres unmarked) [Example 44]
IC50 [1]: 0.587 µM | IC50 [2]: 0.399 µM

SMILES: CC(C)=CCC/C(C)=C/C(=O)NC1Cc2ccc3c(c2)[C@]24C5=C(N=C(O5)[C@H](C(C)C)NC1=O)c1ncc(o1)-c1c[nH]c5cccc(c15)-c1cccc2c1NC4O3 (some centres unmarked) [Example 45]
IC50 [1]: 0.887 µM | IC50 [2]: 0.78 µM

SMILES: CC(C)C(Br)C(=O)NC1Cc2ccc3c(c2)[C@]24C5=C(N=C(O5)[C@H](C(C)C)NC1=O)c1ncc(o1)-c1c[nH]c5cccc(c15)-c1cccc2c1NC4O3 (some centres unmarked) [Example 46]
IC50 [1]: 0.313 µM | IC50 [2]: 0.443 µM

SMILES: CCCC(Br)C(=O)NC1Cc2ccc3c(c2)[C@]24C5=C(N=C(O5)[C@H](C(C)C)NC1=O)c1ncc(o1)-c1c[nH]c5cccc(c15)-c1cccc2c1NC4O3 (some centres unmarked) [Example 47]
IC50 [1]: 0.546 µM | IC50 [2]: 0.323 µM

SMILES: CC(C)[C@@H]1NC(=O)C(NC(=O)C2CC2)Cc2ccc3c(c2)[C@]24C5=C(N=C1O5)c1ncc(o1)-c1c[nH]c5cccc(c15)-c1cccc2c1NC4O3 (some centres unmarked) [Example 48]
IC50 [1]: 0.457 µM | IC50 [2]: 0.22 µM

SMILES: CC1CC1C(=O)NC1Cc2ccc3c(c2)[C@]24C5=C(N=C(O5)[C@H](C(C)C)NC1=O)c1ncc(o1)-c1c[nH]c5cccc(c15)-c1cccc2c1NC4O3 (some centres unmarked) [Example 49]
IC50 [1]: 0.443 µM | IC50 [2]: 0.245 µM

SMILES: CC(C)[C@@H]1NC(=O)C(NC(=O)C2CCCC2)Cc2ccc3c(c2)[C@]24C5=C(N=C1O5)c1ncc(o1)-c1c[nH]c5cccc(c15)-c1cccc2c1NC4O3 (some centres unmarked) [Example 50]
IC50 [1]: 0.339 µM | IC50 [2]: 0.331 µM

SMILES: CC(C)[C@@H]1NC(=O)C(NC(=O)C2CCCCC2)Cc2ccc3c(c2)[C@]24C5=C(N=C1O5)c1ncc(o1)-c1c[nH]c5cccc(c15)-c1cccc2c1NC4O3 (some centres unmarked) [Example 51]
IC50 [1]: 0.235 µM | IC50 [2]: 0.276 µM

SMILES: CC(C)[C@@H]1NC(=O)C(NC(=O)C2(C)CCCCC2)Cc2ccc3c(c2)[C@]24C5=C(N=C1O5)c1ncc(o1)-c1c[nH]c5cccc(c15)-c1cccc2c1NC4O3 (some centres unmarked) [Example 52]
IC50 [1]: 0.386 µM | IC50 [2]: 0.491 µM

SMILES: CC(C)[C@@H]1NC(=O)C(NC(=O)[C@@H]2CCOC2)Cc2ccc3c(c2)[C@]24C5=C(N=C1O5)c1ncc(o1)-c1c[nH]c5cccc(c15)-c1cccc2c1NC4O3 (some centres unmarked) [Example 54]
IC50 [1]: 0.081 µM | IC50 [2]: 0.078 µM

SMILES: CC(C)[C@@H]1NC(=O)C(NC(=O)c2ccc(Br)cc2)Cc2ccc3c(c2)[C@]24C5=C(N=C1O5)c1ncc(o1)-c1c[nH]c5cccc(c15)-c1cccc2c1NC4O3 (some centres unmarked) [Example 55]
IC50 [1]: 0.613 µM | IC50 [2]: 0.406 µM

IC50 [1]: > 1 µM | IC50 [2]: 0.756 µM
SMILES: CC(C)[C@@H]1NC(=O)C(NC(=O)/C=C/C(=O)O)Cc2ccc3c(c2)[C@]24C5=C(N=C1O5)c1ncc(o1)-c1c[nH]c5cccc(c15)-c1cccc2c1NC4O3 (some centres unmarked) [Example 56]

SMILES: CO[C@@](C(=O)NC1Cc2ccc3c(c2)[C@]24C5=C(N=C(O5)[C@H](C(C)C)NC1=O)c1ncc(o1)-c1c[nH]c5cccc(c15)-c1cccc2c1NC4O3)(c1ccccc1)C(F)(F)F (some centres unmarked) [Example 57]
IC50 [1]: 0.58 µM | IC50 [2]: 0.618 µM

SMILES: CO[C@](C(=O)NC1Cc2ccc3c(c2)[C@]24C5=C(N=C(O5)[C@H](C(C)C)NC1=O)c1ncc(o1)-c1c[nH]c5cccc(c15)-c1cccc2c1NC4O3)(c1ccccc1)C(F)(F)F (some centres unmarked) [Example 58]
IC50 [1]: > 1 µM | IC50 [2]: 0.821 µM
